In US6313170A, “L-threonate ferrous, as well as pharmaceutical composition and use for improving and treating human anemia thereof” (priority 1997, dated 2001):
Where two headings read alike, the source gives them in different places.

Assays:
[1] = test system: Hemolytic Anemia Model; assay: Hemolytic anemia model (acetylphenylhydrazine), rats; assay type: in vivo, male Wistar rats
Description: (§1) 1. […] All drugs were diluted by distilled water.
2. […] Animal diet also was purchased from Beijing Medical University.
(1) Hemolytic Anemia Model: Hemolytic anemia model was prepared for rats by injecting reagent of acetylphenylhydrazine (C8 H10 N2 O, produced by Beijing Biochemical Company) subcutaneously. The drug acetyphenylhydrazine was mixed with physiological saline to get its injection solution of 4% by weight of acetyphenylhydrazine. The solution was injected subcutaneously into each rat with a dosage of 57 μg/g at the beginning of the experiments. The content of blood hemochrome for each rat was examined at 2 days and 4 days later, respectively. When the mean blood hemochrome decreased to about 6.11±0.25 g %, rats were randomly divided into 6 groups of 18 rats each. […] The forth groups was positive drug control groups. The fifth group and the sixth group were designed as model group and normal control group, respectively.

[2] = test system: mice testicle cells; settings: mouse, in vivo
[3] = test system: bone marrow cells; settings: in vivo
[4] = test system: Nutritional IDA Model
Description: as §1
(2) Nutritional Anemia Model: Male Wistar rats with body weight 43±2.5 g (Animal Center of Beijing Medical University) were randomly divided into 8 groups of 10 rats each, wherein 6 groups were established for the investigation of nutritional anemia and 2 groups were used as normal control group. The rats of these six groups were supplemented with iron-low diet (prepared according to the formula of AOAC, iron content 8.0 mg/kg) and deionized water four weeks to prepare the nutritional IDA model, which also was called hemoglobin exhausting test. Another two groups were designed as normal control groups and were provided with normal diet (obtained from Beijing Medical University) and water during the whole experimental period.
Hemoglobin of each group of rats was measured one time every 7 days. […] Other 6 groups (three for ferrous L-threonate, one for ferrous gluconate, one for mode control and one normal control group) rats were kept under controlled conditions (ambient temperature 23° C., 60% relative humidity, and 10 hours light) in animal feeding room to continue the further test.

[5] = test system: Blood-loss Anemia Model; assay: Blood-loss anemia model, rats; settings: for Blood hemochrome content / GPC (blood granulophilocyte) / RBC: n=10;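 on all read-outs here: male Wistar rats made anemic by repeated orbital bloodletting, kept on iron-low diet with deionized water while dosed, compared against untreated anemic model and normal-diet control groups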
Description: Ferrous gluconate, the positive control drug, yellow-green powder and 11% ferrous content, was purchased from Ganjian Pharmaceutical Company of Jianxi Province. Ferrous fumarate, 6.4% ferrous content, was purchased from the 18th Pharmaceutical Company of Shanghai. All drugs were diluted by distilled water.
7 groups were prepared as hemolytic anemia groups and one group was taken as normal control group supplemented with normal diet and water. The hemolytic anemia model was prepared by subjecting rats to inner canthus bloodletting of right eye through capillary glass tube. The first bloodletting content was 2.0 ml for each rat and in that time the range of hemochrome for rats was from 9.78 to 10.65 g %. Two days later, the second bloodletting (2 ml/rat) was carried out with the hemochrome values of 7.40-7.88 g %. The total bloodletting volume for each rat was 4 ml and was 32.9% in volume of the whole blood circulating the body.
While one hemolytic anemia group and one normal control group were taken as reference groups compared with other groups left. These two groups' rats were killed and the blood parameters were recorded. Other six groups now were randomly divided into three treatment groups of ferrous L-threonate with high, middle and low dosages respectively, two positive drugs control groups of ferrous gluconate and ferrous fumarate and one model group. At the end of 12 days and 18 days experimental periods, 5 and 10 rats of each group were killed correspondingly. During the course of experiment, the variations of hemochrome content were examined with 6 days interval.
While Element ferrous content 8.64 mg/kg as ferrous gluconate or ferrous fumarate was for positive drug control group. The groups for blood-loss anemia were provided iron-low diet and deionized water during the period of the administration of drugs, while the normal animal control group was provided normal diet and deionized water.

[6] = in vivo, po
[7] = water
[8] = test system: rat
[9] = test system: IDA for Children; settings: for FEP / RBC / SF / Hb: tablets 7.5 mg Fe + 30 mg vitamin C
Description: Subjects: Thirty school-age children aged from 8 to 13 years of Haerbin city of China.
Methods: Blood samples of 10 μl from ear and 5 ml from arm vein for each patient were collected for measurement.
(1) Measurement of RBC: 10 μl blood sample was added to 2 ml diluent and the mixture was shaken completely. One drop of this suspending solution taken by circle glass bar was poured into counting cell. RBC was countered through microscope by laying counting plate on the microstat.
(2) Measurement of HB: The ferric cyanide method was used to determine the HB. 10 μl ear blood sample was added to 5 ml acid diluent to obtain the completely mixed solution by shaking. HB was measured by SH hemoglobinometer manufactured by Huauang Instrument Company of Jianshu Province. Ferric cyanide was purchased from Medical Examination Institute of Shanghai.
(3) Measurement of FEP: To add 0.05 ml whole blood sample anticoagulated by heparin to 3.5 ml of acid anhydrous ethyl alcohol, the mixture was shaken for 5 min and then was centrifugalized with speed of 3000 r/min. The centrifugate of mixture was used for the measurement of fluorometric method (400 nm for exciting optical filter and 600 nm for emitting optical filter).
According to formula given below, the FEP can be calculated. [formula]
Where Fu and PCV represent fluorescence extent and hematocrit, respectively.
To centifugalized 2 ml whole blood sample, the upper solution was used for measurement of SF through the method of radio-immune competition-inhibition program.
Among these 62 IDA patients, 30 children were randomly selected as treatment group of ferrous L-threonate.
Another 30 children with IDA were selected from another prime school with the same diagnosing standards and were established as control group.
Observation time for treatment group and control group was 30 days period and during that period, there were no any intervention on children's activity and food.
(3) Dosages: Each child of treatment group was administered ferrous L-threonate tablets twice a day, one tablet each time. While normal control group was treated with placebo by the same method.

[10] = 8.64 mg Fe/kg (middle dosage / positive control)
[11] = 8.64 mg Fe/kg (middle dosage / positive controls), 12 days
[12] = 8.64 mg Fe/kg (middle dosage / positive controls), 18 days
[13] = high dosage, 17.28 mg Fe/kg, 12 days
[14] = high dosage, 17.28 mg Fe/kg, 18 days
[15] = low dosage, 4.32 mg Fe/kg, 12 days
[16] = low dosage, 4.32 mg Fe/kg, 18 days
[17] = after treatment (30 days), twice a day

ferrous L-threonate
Iron content of whole blood [1, 10]: 301.89 ± 19.500 µg/mL
Serum ferritin (SF) [1, 10]: 23.54 ± 2.50 ng/mL
hemoglobin content ([1]; 8.64 mg Fe/kg (middle dosage / positive control), after anemia (before treatment)): 5.87 g %
hemoglobin content ([1]; 8.64 mg Fe/kg (middle dosage / positive control), before anemia (baseline)): 15.01 g %
hemoglobin content ([1]; 8.64 mg Fe/kg (middle dosage / positive control), one week after treatment): 11.11 g %
hemoglobin content ([1]; 8.64 mg Fe/kg (middle dosage / positive control), two weeks after treatment): 14.04 g %
whole blood iron and serum ferritin compared with ferrous gluconate group ([1]; groups except low dosage group): more considerably better than those of ferrous gluconate group
Iron content of whole blood ([1]; high dosage, 17.28 mg Fe/kg): 326.95 ± 26.956 µg/mL
Serum ferritin (SF) ([1]; high dosage, 17.28 mg Fe/kg): 24.05 ± 1.74 ng/mL
hemoglobin content ([1]; high dosage, 17.28 mg Fe/kg, after anemia (before treatment)): 6.18 g %
hemoglobin content ([1]; high dosage, 17.28 mg Fe/kg, before anemia (baseline)): 14.9 g %
hemoglobin content ([1]; high dosage, 17.28 mg Fe/kg, one week after treatment): 11.95 g %
hemoglobin content ([1]; high dosage, 17.28 mg Fe/kg, two weeks after treatment): 14.34 g %
Iron content of whole blood ([1]; low dosage, 4.32 mg Fe/kg): 283.53 ± 23.051 µg/mL
Serum ferritin (SF) ([1]; low dosage, 4.32 mg Fe/kg): 19.38 ± 1.57 ng/mL
hemoglobin content ([1]; low dosage, 4.32 mg Fe/kg, after anemia (before treatment)): 5.94 g %
hemoglobin content ([1]; low dosage, 4.32 mg Fe/kg, before anemia (baseline)): 14.89 g %
hemoglobin content ([1]; low dosage, 4.32 mg Fe/kg, one week after treatment): 9.95 g %
hemoglobin content ([1]; low dosage, 4.32 mg Fe/kg, two weeks after treatment): 12.57 g %
action on treating anemia compared with ferrous gluconate ([1]; same dosage of iron, 8.64 mg/kg): considerably better than ferrous gluconate
chromosome aberration test result [2]: negative
micronucleus test result [3]: negative
hemochrome content, onset of increase ([4]; end of 7 days supplementation): started to increase at the end of 7 days supplementation
hemochrome content compared with normal control groups ([4]; rat, in vivo): reached nearly the normal levels of normal control groups
parameters investigated compared with ferrous gluconate ([4]; same ferrous dosage): better than those of the known drug, ferrous gluconate
Blood hemochrome content ([5]; 8.64 mg Fe/kg (middle dosage / positive controls), 6 days after treatment): 8.35 ± 0.21
Blood hemochrome content ([5]; 8.64 mg Fe/kg (middle dosage / positive controls), 12 days after treatment): 10.67 ± 0.37
GPC (blood granulophilocyte) [5, 11]: 12.58%
RBC [5, 11]: 4.81e+12 L⁻¹
Blood hemochrome content ([5]; 8.64 mg Fe/kg (middle dosage / positive controls), 18 days after treatment): 12.14 ± 0.27
GPC (blood granulophilocyte) [5, 12]: 8.44%
RBC [5, 12]: 5.21e+12 L⁻¹
Blood hemochrome content ([5]; 8.64 mg Fe/kg (middle dosage / positive controls), before treatment): 7.40 ± 0.54
Blood hemochrome content ([5]; high dosage, 17.28 mg Fe/kg, 6 days after treatment): 8.70 ± 0.43
Blood hemochrome content ([5]; high dosage, 17.28 mg Fe/kg, 12 days after treatment): 11.01 ± 0.34
GPC (blood granulophilocyte) [5, 13]: 10.04%
RBC [5, 13]: 5.67e+12 L⁻¹
Blood hemochrome content ([5]; high dosage, 17.28 mg Fe/kg, 18 days after treatment): 12.40
GPC (blood granulophilocyte) [5, 14]: 7.84%
RBC [5, 14]: 5.84e+12 L⁻¹
Blood hemochrome content ([5]; high dosage, 17.28 mg Fe/kg, before treatment): 7.88 ± 0.28
Blood hemochrome content ([5]; low dosage, 4.32 mg Fe/kg, 6 days after treatment): 8.00 ± 0.42
Blood hemochrome content ([5]; low dosage, 4.32 mg Fe/kg, 12 days after treatment): 10.20 ± 0.49
GPC (blood granulophilocyte) [5, 15]: 13.12%
RBC [5, 15]: 4.242e+12 L⁻¹
Blood hemochrome content ([5]; low dosage, 4.32 mg Fe/kg, 18 days after treatment): 11.26 ± 0.79
GPC (blood granulophilocyte) [5, 16]: 8.91%
RBC [5, 16]: 4.76e+12 L⁻¹
Blood hemochrome content ([5]; low dosage, 4.32 mg Fe/kg, before treatment): 7.61 ± 0.53
effect on treating IDA compared with both ferrous gluconate and ferrous fumarate ([5]; same ferrous dosage): better effects on treating IDA compared with both ferrous gluconate and ferrous fumarate
improvement and cure of anemia compared with ferrous gluconate and ferrous fumarate ([5]; summary statement covering hemolytic anemia, blood-loss anemia and nutritional IDA): can significantly improve and cure hemolytic anemia, blood-loss anemia and nutritional IDA
embryonic toxicity and aberration [6]: did not produce embryonic toxicity and abberation
solubility [7]: soluble in water
toxicity grade ([8]; acute toxicity, rat): belongs to the grade of very lower
LD50 ([8]; female rat): 3160 mg/kg
LD50 ([8]; male rat): 3690 mg/kg
safety in use ([8]; rat, in vivo): used safely and without toxicity
variations of Hb, SF and RBC compared with control group ([9]; 30 days of treatment, P<0.01): significantly better compared with those of control group (P<0.01)
FEP ([9]; after treatment (30 days)): 445.1 µg/L
RBC [9, 17]: 401.5 ± 12.4 10^4 /mm^3
SF [9, 17]: 17.01 ± 1.99 µg/L
Hb ([9]; before treatment, twice a day): 104.8 ± 6.1 g/L
RBC ([9]; before treatment, twice a day): 387 ± 6.67 10^4 /mm^3
SF ([9]; before treatment, twice a day): 12.45 ± 1.50 µg/L
number of children with Hb > 120 g/L and ΔHb > 10 g/L ([9]; n=30, tablets, 30 days): 17
number of children with no effectiveness ([9]; n=30, tablets, 30 days): 6
number of children with ΔHb > 5 g/L ([9]; n=30, tablets, 30 days): 7
share of children with Hb > 120 g/L and ΔHb > 10 g/L ([9]; n=30, tablets, 30 days): 56.7%
share of children with no effectiveness ([9]; n=30, tablets, 30 days): 20.0%
share of children with ΔHb > 5 g/L ([9]; n=30, tablets, 30 days): 23.3%
FEP ([9]; printed under after treatment (30 days)): 120.4 ± 11.2 µg/L
Hb ([9]; printed under before treatment): 669.1 ± 72.0 g/L
effective rate of improving the case of IDA for children ([9]; tablets, 30 days): 80%
variations of Hb, SF and RBC before and after treatment ([9]; treatment group, P<0.01): understandingly significant difference (P<0.01)
